Reference: PubChem BioAssay (NCI)
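Interpolation was linear, between the two tested concentrations surrounding the appropriate level; five concentrations were tested over 48 hours in 96-well plates. GI50 = concentration required for 50% inhibition of growth. The concentration for full growth arrest is given as TGI.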

Tests used:
Assay in all cases: inhibition of tumour cell growth, NCI panel, 48 h
COLO 205 colon = system: COLO 205 colon
EKVX NSCLC = system: EKVX NSCLC
K-562 leukemia = system: K-562 leukemia
MALME-3M melanoma = system: MALME-3M melanoma
MOLT-4 leukemia = system: MOLT-4 leukemia
NCI-H226 lung = system: NCI-H226 lung
U251 CNS = system: U251 CNS
UACC-257 melanoma = system: UACC-257 melanoma
UO-31 renal = system: UO-31 renal
HCT-116 colon = system: HCT-116 colon

Structure (SMILES)	GI50 (COLO 205 colon) [µM]	TGI (COLO 205 colon) [µM]	GI50 (EKVX NSCLC) [µM]	TGI (EKVX NSCLC) [µM]	GI50 (K-562 leukemia) [µM]	TGI (K-562 leukemia) [µM]	GI50 (MALME-3M melanoma) [µM]	TGI (MALME-3M melanoma) [µM]	GI50 (MOLT-4 leukemia) [µM]	TGI (MOLT-4 leukemia) [µM]	GI50 (NCI-H226 lung) [µM]	TGI (NCI-H226 lung) [µM]	GI50 (U251 CNS) [µM]	TGI (U251 CNS) [µM]	GI50 (UACC-257 melanoma) [µM]	TGI (UACC-257 melanoma) [µM]	GI50 (UO-31 renal) [µM]	TGI (UO-31 renal) [µM]	TGI (HCT-116 colon) [µM]	GI50 (HCT-116 colon) [µM]
CNCCn1c(=O)c2cc(OC)c(OC)cc2c2ccc3cc4c(cc3c21)OCO4	0.0753	0.735	0.266	5.01	0.0552	5.19	0.172	0.812	0.0227	0.211	0.192	1.03	0.0495	1.19	0.16	0.854	0.123	0.543		
CCN(CC)C(=S)Oc1cc2oc(=O)cc(C)c2cc1Cl		> 100		> 100		> 100				> 100		> 100		> 100		> 100		> 100	> 100	
CN(C)CCCNC(=O)c1ccc2c(c1)oc1cc3ccccc3c(=O)n12	14.6	32.5	17.6	45.7	27.2	> 50	> 50	> 50	18.4	> 50			11.1	22.8	12.6	36.8	8.75	20.2	> 50	19.3
N.N.N.N.O=C([O-])C(Cl)Cl.O=C([O-])C(Cl)Cl.[Co+3].[O-][Cl+3]([O-])([O-])[O-]	> 100	> 100	> 100	> 100	> 100	> 100	> 100	> 100	> 100	> 100			> 100	> 100	> 100	> 100	> 100	> 100	> 100	> 100
O=[N+]([O-])c1cnn(C2=CNc3ccccc3N=C2)c1		> 100		> 100				> 100		> 100		> 100		> 100		> 100		> 100	> 100	
CCCCN(CCCC)c1c([N+](=O)[O-])c(=O)nc2ccccn12		> 100		94.1		> 100		> 100		> 100		> 100		> 100				94	> 100	
COc1cc(C(=O)Nc2cc3c(cc2Oc2cc(C)cc(C)c2)C(=O)N(C)[C@@H](CC(=O)N(C)O)C(=O)N3)c(Br)c(OC)c1OC			< 0.00333	0.0201	< 0.00333	0.00872	< 0.00333	< 0.00333	< 0.00333	< 0.00333	< 0.00333	0.0128	< 0.00333	0.00506	< 0.00333	0.00475	0.0255	0.413	< 0.00333	< 0.00333
Cc1ccc(-c2cc(-c3ccco3)c(C#N)c(=O)n2C2OC(OC(=O)c3ccccc3)C(OC(=O)c3ccccc3)C2OC(=O)c2ccccc2)cc1 (stereo not drawn)				> 100		> 100		> 100		> 100								> 100	> 100	
CCn1c2ccc(O)cc2c2c(C)c3c[n+](C)ccc3c(C)c21	3.03	17.3	10.9	> 100	6.03	> 100	1.32	7.12	2.06	95.1	0.896	27.6	0.307	9.72			14.9	> 100	> 100	4.55
Cc1nc2sccn2c1-c1csc(Nc2cccc(Cl)c2C)n1	6.75	43.7			2.12	> 100			4.22	26.8	3.24	48.5	4.37	19.6	2.52	12.5	3.05	23.7	20.1	4.67
CCN(CC)C(=S)SC		> 100		> 100		> 100		> 100		> 100		> 100		> 100		> 100			> 100	
CCCOc1ccc2nc(NC(=O)OC)[nH]c2c1	0.135	0.505	0.535	> 100			2.72	> 100	0.426	> 100	0.399		0.301	> 100	> 100	> 100	0.501	> 100	> 100	0.22
Nc1ccccc1C#C/C=C\C#Cc1ccccc1	14.9	29.3	15.3	41.1	12.8	> 100			13.3	> 100	11.8	31.3	19.2	46.9	27.7	> 100	17.7	59.3	28.6	14.1
O=c1cccc(C2CC(CO)C3CCCCN3C2)[nH]1 (stereo not drawn)		> 100		> 100		> 100				> 100		> 100		> 100		> 100		> 100	> 100	
CC[O-].CC[O-].O=S(=O)([O-])c1ccc([O-])c2ncccc12.O=S(=O)([O-])c1ccc([O-])c2ncccc12.[Ti+4]	83.2	> 100	> 100	> 100	> 100	> 100	> 100	> 100	37.2	> 100	> 100	> 100			43.7	> 100	74.4	> 100	> 100	41.1
Cc1cc(C)c(C(=O)c2no[n+]([O-])c2C(=O)c2c(C)cc(C)c(Br)c2C)c(C)c1Br		31.4		24.4				29.9		20.2		31.6		25				20.2	21.9	
